# According to US20230226041A1, “COMPOUNDS FOR THE TREATMENT OF VIRAL INFECTIONS” (Merck Patent GmbH, priority 2020, published 2023):
# Where two headings read alike, the source gives them in different places.
# Test system: SARS-CoV2/ZG/297-20
# Type: cell-based
# Conditions: Calu-3 cells infected with SARS-CoV-2, MOI 0.05, observed for 120 hours, level about equal to uninfected cells
SMILES,"confluence of Calu-3 cells as compared to the infected cells (concentrations between 4 and 27 μM, FIG. 1)","confluence of Calu-3 cells as compared to the infected cells (concentrations between 16 and 81 μM, FIG. 2)"
"COc1cc2ncc3c(c2cc1-c1cn(C)nc1C)n(-c1c(F)cncc1OC)c(=O)n3C (atropisomer, axis not shown; (Sa)) [NCE4, 8-(1,3-dimethyl-1H-pyrazol-4-yl)-1-(Sa)-(3-fluoro-5-methoxy-pyridin-4-yl)-7-methoxy-3-methyl-1,3-dihydro-imidazo[4,5-c]quinolin-2-one]",significant retainment or improvement of the confluence of the cells,
"COc1cc2ncc3c(c2cc1-c1cnn(C)c1)n(-c1ccc(C#N)cc1F)c(=O)n3C [NCE16, 3-fluoro-4-[7-methoxy-3-methyl-8-(1-methyl-1H-pyrazol-4-yl)-2-oxo-2,3-dihydro-imidazo[4,5-c]quinolin-1-yl]-benzonitrile]",,significant retainment or improvement of the confluence of the cells
